Laboratory results taken from patent US6075033A, “Anthranilic acid diamides derivatives, their preparation and pharmaceutical use as anti-gastrin agents” (Rotta Research Laboratorium S.p.A, priority 1996, dated 2000).

Columns and labels:
central CCK-B receptor [1] = molecular target: T1, central CCK-B receptor (Cavia porcellus, UniProt H0VZC5); test: Inhibition of the binding of [3H]-[pBC264]CCK-7 to guinea-pig cortex membranes; conditions: for IC50: guinea-pig cortex membranes, 0.2 nM radioligand, read-out: IC50, displacement of [3H][pBC264]CCK-7 from the receptor; for times less active than the corresponding (R) derivative: on average, CCK-B binding
T1 construct: Cerebral cortexes of male albino guinea pigs were therefore used; from tissue; host or cells: cerebral cortex membranes of male albino guinea pigs
T1 sequence (H0VZC5 1-426): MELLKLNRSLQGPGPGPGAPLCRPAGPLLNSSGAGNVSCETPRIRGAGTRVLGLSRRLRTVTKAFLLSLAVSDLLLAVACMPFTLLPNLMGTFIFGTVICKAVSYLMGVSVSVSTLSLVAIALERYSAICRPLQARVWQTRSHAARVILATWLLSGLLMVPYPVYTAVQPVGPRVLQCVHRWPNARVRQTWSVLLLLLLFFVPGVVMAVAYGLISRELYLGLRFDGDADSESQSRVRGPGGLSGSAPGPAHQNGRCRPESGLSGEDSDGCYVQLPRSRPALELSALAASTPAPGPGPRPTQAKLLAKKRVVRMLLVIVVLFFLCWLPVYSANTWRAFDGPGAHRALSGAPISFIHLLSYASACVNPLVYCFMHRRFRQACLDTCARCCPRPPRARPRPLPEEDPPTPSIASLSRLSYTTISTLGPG
From the text: (§1) [3-H][pBC264]CCK-7 was used to evaluate the ability of the compounds of the invention to interact with the central CCK-B receptor. This ligand has been show: to be selective for the CCK-B receptors since it has an affinity for the cortex (CCK-B) receptors 3 logarithmic orders of magnitude greater than for those of the pancreas (CCK-A) in the guinea pig (C. Durieux et al. Eur. J. Pharmacol. 168 (1989 page 269].
(§2) Cerebral cortexes of male albino guinea pigs were therefore used with the method given above, to obtain a membrane content corresponding to about 300 mcg of proteins/ml incubated with a final concentration of 0.2 nM of radioligand.
(§3) The results obtained for some of the compounds of the invention are shown in Table 2 in which the IC50, that is, the concentration (in micromoles/liter) of the antagonist which can displace 50% of the [3-H](pBC264]CCK-7 from the receptor, is given.

central CCK-B receptor [2] = test: as above; conditions: CCK-B binding (Table 2) compared with CCK-A gall bladder activity
From the text: as §1, §2, §3

[3] = molecular target: T2, type B (CCK-B) gastrin or cholecystokinin receptors (Oryctolagus cuniculus, UniProt P46627); test: Inhibition of the increase in cytosol calcium induced by gastrin in rabbit gastric mucous-membrane cells; type: cell-based; conditions: 5×10-8 gastrin
T2 construct: rabbit gastric mucous-membrane cells were prepared by conventional techniques; endogenous in cells; host or cells: dispersed rabbit gastric mucous-membrane cells (collagenase and pronase)
T2 sequence (P46627 1-452): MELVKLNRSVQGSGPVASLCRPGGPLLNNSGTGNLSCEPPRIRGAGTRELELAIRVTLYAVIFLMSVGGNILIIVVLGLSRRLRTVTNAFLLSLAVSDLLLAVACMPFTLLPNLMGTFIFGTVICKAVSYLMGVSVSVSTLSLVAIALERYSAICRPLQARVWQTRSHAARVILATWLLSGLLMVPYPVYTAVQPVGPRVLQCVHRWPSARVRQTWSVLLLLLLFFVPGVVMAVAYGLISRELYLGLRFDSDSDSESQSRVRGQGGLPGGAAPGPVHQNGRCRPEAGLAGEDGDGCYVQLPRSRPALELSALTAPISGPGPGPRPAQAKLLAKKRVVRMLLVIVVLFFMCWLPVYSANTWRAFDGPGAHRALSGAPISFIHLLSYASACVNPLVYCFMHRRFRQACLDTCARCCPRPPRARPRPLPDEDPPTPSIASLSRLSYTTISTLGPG
From the text: The parietal cells of the gastric mucous membrane are responsible for the secretion of HCl. They have specific membrane receptors which can be activated by gastrin and which have been defined as type B (CCK-B) gastrin or cholecystokinin receptors.
Since it has been observed that the activation of CCK-B receptors by gastrin leads to an increase in the level of cytosol calcium ions, a technique of measurement of the increase in intracellular calcium induced by gastrin in the presence and in the absence of the compounds of the invention was used as an indication of the anti-gastrin activity of the compounds.
Suspensions (0.8×10^6 /ml) of rabbit gastric mucous-membrane cells were prepared by conventional techniques with the use of collagenase and pronase as digestive enzymes; the basal [Ca^2+ ]i values, that is, those reached […] stimulation of the cellular system, were estimated in accordance with Grynkiewicz et al [J. Biol. Chem. 260 (1985), 3440]. In the control samples, the cells were stimulated with […], whereas in the samples in which the effect of the compounds of the invention was evaluated, the cells were incubated with these compounds before stimulation with gastrin. The results are expressed as percentage increments of [Ca^2+ ]i with reference to the control value. The anti-gastrin activity of the compounds was expressed as the IC50 value, that is, the concentration (in micromoles/liter) at which the response to the stimulus induced by gastrin was reduced by 50%.

rat = test: Anxiolytic activity, elevated plus-maze in the rat; type: in vivo
From the text: An important role has in fact recently been postulated for the central CCK-B receptor in anxiety. […] In this experimental model, a compound having anxiolytic activity produces a % increase in the time spent in the open limbs and a % increase in the number of entries to the open limbs.
The results obtained are shown in Table 4 below, in which the activities obtained with various doses of compound 1 administered by an intraperitoneal route (IP) in comparison with a group of animals treated with physiological solution by the same route.

SMILES: Cc1cc(C)c(NC(=O)C[C@H](CC(=O)O)c2cccc3ccccc23)c(C(=O)N2CCC3(CCCC3)CC2)c1 [Compound 1]
- IC50 (central CCK-B receptor [1]): 5.1 nM
- affinity for the gastrin receptor (CCK-B) relative to the cholecystokinin receptor (CCK-A) (central CCK-B receptor [2]): at least 1000 times
- IC50, inhibition of gastrin-induced increase in cytosol calcium [3]: 4.3 nM
- % effect Vs controls (entries open limbs/total entries) (rat; 0.03 mg/kg I.P.): 32.6%
- % effect Vs controls (time open limbs/total time) (rat; 0.03 mg/kg I.P.): 26.4%
- Entries open limbs/total entries (%) (rat; 0.03 mg/kg I.P.): 42.2%
- Time open limbs/total time (%) (rat; 0.03 mg/kg I.P.): 27.5%
- % effect Vs controls (entries open limbs/total entries) (rat; 0.3 mg/kg I.P.): 31.5%
- % effect Vs controls (time open limbs/total time) (rat; 0.3 mg/kg I.P.): 50.9%
- % of time spent in the open limbs vs control group (in words) (rat; 0.3 mg/kg I.P.): this increase is significant
- Entries open limbs/total entries (%) (rat; 0.3 mg/kg I.P.): 41.8%
- Time open limbs/total time (%) (rat; 0.3 mg/kg I.P., (*) Duncan test p < 0.05 vs control group): 32.8%
- % effect Vs controls (entries open limbs/total entries) (rat; 3.0 mg/kg I.P.): 26.3%
- % effect Vs controls (time open limbs/total time) (rat; 3.0 mg/kg I.P.): 38.5%
- Entries open limbs/total entries (%) (rat; 3.0 mg/kg I.P.): 40.2%
- Time open limbs/total time (%) (rat; 3.0 mg/kg I.P.): 30.1%
- % of entries to the open limbs over total entries vs controls (in words) (rat; dose range 0.03-3 mg/kg I.P.): increases the % of entries to the open limbs
- anxiolytic activity (in words) (rat; plus maze, I.P.): shows anxiolytic activity

SMILES: Cc1cc(Cl)c(NC(=O)C[C@H](CC(=O)O)c2cccc3ccccc23)c(C(=O)N2CCC3(CCCC3)CC2)c1 [Compound 2]
- IC50 (central CCK-B receptor [1]): 2.5 nM
- IC50, inhibition of gastrin-induced increase in cytosol calcium [3]: 3.5 nM

SMILES: Cc1cc(C)c(NC(=O)C[C@@H](CC(=O)O)c2cccc3ccccc23)c(C(=O)N2CCC3(CCCC3)CC2)c1 [Compound 4]
- IC50 (central CCK-B receptor [1]): 54.7 nM
- times less active than the corresponding (R) derivative (central CCK-B receptor [1]): ~10 times
- IC50, inhibition of gastrin-induced increase in cytosol calcium [3]: 68.8 nM

SMILES: Cc1cc(Cl)c(NC(=O)C[C@@H](CC(=O)O)c2cccc3ccccc23)c(C(=O)N2CCC3(CCCC3)CC2)c1 [Compound 5]
- IC50 (central CCK-B receptor [1]): 22.9 nM
- times less active than the corresponding (R) derivative (central CCK-B receptor [1]): ~10 times
- IC50, inhibition of gastrin-induced increase in cytosol calcium [3]: 82 nM
